This note sets out measurements from patent publication US20100063089A1, “SUCCINATE SALT OF 2-((4-(1-METHYL-4-PYRIDIN-4-YL)-1H-PYRAZOL-3-YL)PHENOXY)METHYL)QUINOLINE” (PFIZER INC, priority 2006, published 2010).

Data set [1] can be described thus: isothermal moisture sorption test. The format is physicochemical. Conditions: at 90±2% relative humidity; isothermal 25.1±0.1° C.; conducted from approximately 1% to 90% (±2%) humidity. The procedure: In another embodiment, the succinate salt increases in weight by less than 0.5% at 90±2% relative humidity in an isothermal (25.1±0.1° C.) moisture sorption test conducted from approximately 1% to 90% (±2%) humidity.

A short description of data set [2]: solid-state properties for formulation (deliquescence, hygroscopicity). Format: physicochemical. Conditions: solid salt.

`Cn1cc(-c2ccncc2)c(-c2ccc(OCc3ccc4ccccc4n3)cc2)n1.O=C(O)CCC(=O)O` [succinate salt, succinate salt of 2-((4-(1-methyl-4-(pyridin-4-yl)-1H-pyrazol-3-yl)phenoxy)methyl)quinoline]: the “increase in weight in moisture sorption test” value in data set [1] is listed as “less than 0.5%”. In data set [2], the deliquescence result is given as “not deliquescent” and the hygroscopicity result is given as “non-hygroscopic”.
